The values below come from patent US20140364431A1, “Quinoline and cinnoline derivatives and their applications” (Shenyang Pharmaceutical University, priority 2011, published 2014).

For orientation: IC50 means the point on the concentration scale where inhibition reaches its midpoint.

Assay [1] deals with human tumor cell lines (such as human lung cancer cells, human gastric cancer cells, etc.). As to conditions: cited from earlier work.
Assay [2] addresses T1, c-Met (His-tagged recombinant human Met (Amino acids 974-ends)) (Homo sapiens, UniProt P08581).
T1 construct: His-tagged recombinant human Met (Amino acids 974-ends); His; host or cells: baculovirus expression
The assay is described as follows: c-Met kinase assay (ELISA). Format: biochemical. To be noted: 50 pM c-Met, 5 μM ATP, 20 min. How it is done: c-Met kinase activity was measured with an ELISA reader.
The reaction mixture was removed by washing with 0.2 μg/mL conjugated horseradish peroxidase (HRP) monoclonal antibody specific for phosphotyrosine (PY20) detecting phosphorylation of the substrate polymer. 1M phosphoric acid was added to terminate the color, the chromogenic substrate (TMB) was tested by spectrophotometry at 450 nm.
A general note: ELISA stands for enzyme-linked immunosorbent assay.

For assay [3], the system named is MKN-45 (human gastric carcinoma cell). The assay is described as follows: In vitro anti-tumor cellular activity (MTT), MKN-45. To be noted: MTT, 72 hours, MKN-45; for IC50: Homo sapiens, read-out: MKN-45 IC50. Type of assay: cell-based.
The subject of assay [4] is SMMC-7721 (hepatoma cell). Nature of the assay: In vitro anti-tumor cellular activity (MTT), SMMC-7721. Format: cell-based, human. As to conditions: MTT, 72 hours, SMMC-7721; for IC50: Homo sapiens, read-out: SMMC-7721 IC50.
The subject of assay [5] is H460 (human lung cancer cell). The assay is described as follows: In vitro anti-tumor cellular activity (MTT), H460. Type of assay: cell-based. As to conditions: MTT, 72 hours, H460; for IC50: Homo sapiens, NCI-H460, read-out: H460 IC50.
In assay [6] the test system is HT-29 (colon cancer cell). Nature of the assay: In vitro anti-tumor cellular activity (MTT), HT-29. Type of assay: cell-based, human. To be noted: MTT, 72 hours, HT-29; for IC50: Homo sapiens, read-out: HT-29 IC50.
The test system of assay [7] is U87MG (Human malignant glioblastoma cells). Nature of the assay: In vitro anti-tumor cellular activity (MTT), U87MG. Type of assay: cell-based. As to conditions: MTT, 72 hours, U87MG; for IC50: Homo sapiens, U-87 MG, read-out: U87MG IC50.

≈ marks a conversion by molar mass, not a printed value. Structures can show the parent of a compound that is named as a salt.

T1 sequence (P08581 974-1390 limits assumed): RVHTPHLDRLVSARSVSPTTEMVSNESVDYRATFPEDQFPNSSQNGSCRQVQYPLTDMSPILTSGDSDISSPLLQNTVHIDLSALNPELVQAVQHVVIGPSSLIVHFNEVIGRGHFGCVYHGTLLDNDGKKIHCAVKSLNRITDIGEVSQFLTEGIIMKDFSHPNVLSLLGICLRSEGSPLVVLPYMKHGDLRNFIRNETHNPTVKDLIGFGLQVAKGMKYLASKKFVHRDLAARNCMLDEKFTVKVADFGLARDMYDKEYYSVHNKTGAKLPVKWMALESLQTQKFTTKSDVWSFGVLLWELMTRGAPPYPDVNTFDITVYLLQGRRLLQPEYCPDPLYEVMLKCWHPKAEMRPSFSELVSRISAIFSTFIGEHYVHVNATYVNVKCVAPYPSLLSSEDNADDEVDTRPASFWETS

Take `COc1cc2c(Oc3ccc(NC(=O)C4(C(=O)Nc5ccc(F)cc5)CC4)cc3F)ccnc2cc1OCCCN1CCOCC1` [Foretinib]: in assay [1], the “IC50 against a variety of human tumor cell lines” value was 0.004 µg/mL.
For `COc1cc2c(Oc3ccc(NC(=O)c4nn(-c5cc(C(F)(F)F)ccc5Cl)c5ccccc5c4=O)cc3F)ccnc2cc1OCCCN1CCCCC1` [Example 20, N-(3-fluoro-4-((6-methoxy-7-(3-(piperidin-1-yl)propoxy)quinolin-4-yl)oxy)phenyl)-1-(2-chloro-5-(trifluoromethyl)phenyl)-4-oxo-1,4-dihydrocinnoline-3-carboxamide], the IC50 in assay [2] is 1930 nM; in assay [3], 1.6 µg/mL (≈ 2.06 µM); in assay [4], 0.5 µg/mL (≈ 0.644 µM); in assay [5], 1.1 µg/mL (≈ 1.42 µM); in assay [6] it was 0.7 µg/mL (≈ 0.902 µM); in assay [7] it was 1.3 µg/mL (≈ 1.67 µM).
Take `COc1cc2c(Oc3ccc(NC(=O)c4cn(-c5ccccc5C(F)(F)F)c5ccccc5c4=O)cc3F)ccnc2cc1OCCCN1CCC(C)CC1` [Example 57, N-(3-fluoro-4-((6-methoxy-7-(3-(4-methylpiperidin-1-yl)propoxy)quinolin-4-yl)oxy)phenyl)-4-oxo-1-(2-(trifluoromethyl)phenyl)-1,4-dihydroquinoline-3-carboxamide]: the IC50 is 1060 nM in assay [2]; 0.91 µg/mL (≈ 1.21 µM) in assay [3]; 0.58 µg/mL (≈ 0.768 µM) in assay [4]; 1.3 µg/mL (≈ 1.72 µM) in assay [5]; 0.87 µg/mL (≈ 1.15 µM) in assay [6]; 1.1 µg/mL (≈ 1.46 µM) in assay [7].
Turning to `COc1cc2c(Oc3ccc(NC(=O)c4nn(-c5cc(C(F)(F)F)ccc5Cl)c5ccccc5c4=O)cc3F)ccnc2cc1OCCCN1CCC(C)CC1` [Example 21, N-(3-fluoro-4-((6-methoxy-7-(3-(4-methylpiperidin-1-yl)propoxy)quinolin-4-yl)oxy)phenyl)-1-(2-chloro-5-(trifluoromethyl)phenyl)-4-oxo-1,4-dihydrocinnoline-3-carboxamide], the IC50 in assay [2] was 1140 nM; in assay [3] it was 0.6 µg/mL (≈ 0.759 µM); in assay [4], 1.4 µg/mL (≈ 1.77 µM); in assay [5], 0.8 µg/mL (≈ 1.01 µM); in assay [6], 0.8 µg/mL (≈ 1.01 µM); in assay [7], 0.7 µg/mL (≈ 0.886 µM).
Take “N-(3-fluoro-4-((6-methoxy-7-(3-(piperidin-1-yl)propoxy)quinolin-4-yl)oxy)phenyl)-1-(2-fl uorophenyl)-4-oxo-1,4-dihydrocinnoline-3-carboxamide [Example 7]”: the “c-Met IC50” value in assay [2] was 0.5 µg/mL. For the same compound, the “MKN-45 IC50” value in assay [3] was 1.4 µg/mL. In assay [4], the “SMMC-7721 IC50” value amounted to 0.63 µg/mL. The “H460 IC50” value in assay [5] was 1.7 µg/mL. The “HT-29 IC50” value in assay [6] is 0.82 µg/mL. The “U87MG IC50” value in assay [7] was 1.5 µg/mL.
Regarding `COc1cc2c(Oc3ccc(NC(=O)c4cn(-c5ccc(F)cc5)c5ccccc5c4=O)cc3F)ccnc2cc1OCCCN1CCN(C)CC1` [Example 46, N-(3-fluoro-4-((6-methoxy-7-(3-(4-methyl-piperazin-1-yl)propoxy)quinolin-4-yl)oxy)phenyl)-4-oxo-1-(4-fluorophenyl)-1,4-dihydroquinoline-3-carboxamide dihydrochloride], the IC50 is 1130 nM in assay [2]; 0.67 µg/mL in assay [3]; 1.3 µg/mL in assay [4]; 0.98 µg/mL in assay [5]; 1.5 µg/mL in assay [6]; 0.72 µg/mL in assay [7].
Take `COc1cc2c(Oc3ccc(NC(=O)c4nn(-c5ccc(C)cc5C)c5ccccc5c4=O)cc3F)ccnc2cc1OCCCN1CCN(C)CC1` [Example 26, N-(3-fluoro-4-((6-methoxy-7-(3-(4-methylpiperazin-1-yl)propoxy)quinolin-4-yl)oxy)phenyl)-1-(2,4-dimethylphenyl)-4-oxo-1,4-dihydrocimloline-3-carboxamide]: the IC50 in assay [2] was 419 nM; in assay [3], 0.7 µg/mL (≈ 0.977 µM); in assay [4] it was 1.6 µg/mL (≈ 2.23 µM); in assay [5], 0.8 µg/mL (≈ 1.12 µM); in assay [6], 1.4 µg/mL (≈ 1.95 µM); in assay [7], 1.8 µg/mL (≈ 2.51 µM).
Consider `COc1cc2c(Oc3ccc(NC(=O)c4nn(-c5ccccc5OC(F)(F)F)c5ccccc5c4=O)cc3F)ccnc2cc1OCCCN1CCCCC1` [Example 38, N-(3-fluoro-4-((6-methoxy-7-(3-(piperidin-1-yl)propoxy)quinolin-4-yl)oxy)phenyl)-1-(2-(trifluoromethoxy)phenyl)-4-oxo-1,4-dihydrocinnoline-3-carboxamide], for which the IC50 is 1450 nM in assay [2]; 2.1 µg/mL (≈ 2.77 µM) in assay [3]; 0.98 µg/mL (≈ 1.29 µM) in assay [4]; 1.6 µg/mL (≈ 2.11 µM) in assay [5]; 1.8 µg/mL (≈ 2.38 µM) in assay [6]; 1.1 µg/mL (≈ 1.45 µM) in assay [7].
